Results from patent publication US20250213700A1, “COMPOUNDS, COMPOSITIONS, AND METHODS FOR CELL-SPECIFIC PHARMACOLOGY” (Duke University, priority 2022, published 2025).

Tests used:
AMPAR [1] = assay: positive allosteric modulation of the AMPAR by CMPDA reagents; assay type: cell-based
Description: To complete the bidirectional ionotropic toolkit, allosteric modulators of the AMPAR were explored. For many pharmaceuticals of this class, including cyclothiazide, two drug molecules are known to bind in close proximity, one on each side of the interface between adjacent ligand-binding domains. Thus, newer pharmaceuticals of this class were focused on, which can span the two binding sites simultaneously, reasoning that it would be easier to accommodate a single tether into the binding interface. In particular, CMPDA (phenyl-1,4-bisalkylsulfonamide) was focused on, owing to its structural simplicity and availability of an experimental atomic structure. […] A synthetic scheme to resynthesize CMPDA while installing a short PEG spacer domain at a point of attachment was devised to allow tether access from the allosteric binding site to free solution. […] Altering the electrostatic properties of the spacer domain was explored. In silico docking and experimental iteration to redesign the electronegative spacer (CCOCCOCC) into a polar neutral spacer (CBNCCCNC) was used, yielding CMPDA.2alkyne, which was converted into the full-length CMPDA.2DART.2.

AMPAR [2] = assay: whole-mount retina, AMPAR-mediated evoked EPSC in retinal ganglion cells; assay type: cell-based, mouse; conditions: 300 nM, 15 min
Protocol: (FIG. 6A) Viral strategy (top panel). […] Experimental overview (second panel from the top to bottom panel). Top: whole retina; synaptic current is evoked (stim) and recorded (voltage-clamp of dTomato+ RGC), with ionic and pharmaceutical conditions chosen to isolate the AMPAR or GABAAR. A 10 min baseline is followed by 15 min application of 300 nM Rx^DART.2+30 nM Alexa^647.1DART.2. […] (FIG. 6B) CMPDA.2^DART.2 (left). Electropositive spacer (PDB 3RNN). […] AMPAR structural model (middle) (composite of PDB 5WEO, 3RNN, and 1FTL). Cylinder depicts cell membrane. […] YM90K.1^DART.2 (right). Structural model (PDB 1FTL). […] (FIG. 6C) diazepam.1^DART.2 (left). Structural model (PDB 6HUP). […] GABAAR (middle) structural model (composite of PDB 6HUP and 6HUK). […] Structural model (PDB 6HUK).
Preparation of Retina: Mice were intravitreal injected AAV10 HaloTag™-dTomato to eyes. After 8-12 weeks, the mice killed by cervical dislocation. Both eyes were removed and dissected under a stereo-microscope. Retinas were isolated from the eyecups and placed in oxygenated (95% O2/5% CO2) cold-Ames medium (Sigma-Aldrich), supplemented with 21 mM NaHCO3. After the vitreous body was removed, a retina was cut into 3 pieces, leaving each retina piece attached to a filter paper with 2 mm hole by retina ganglion-cell-side-down. The pieces of retina were stored in bubbled Ames solution at room temperature, then transferred to recording chamber with retina ganglion-cell-side-up for recording.
Whole-cell patch-clamp recording: The brain slices or retinas were perfused with bubbled aCSF at 29-30° C. with a 2 ml/min flow rate. Recordings were made by whole cell patch recording techniques using a Multiclamp 700B amplifier (Molecular Devices, Axon Instruments Inc., Union City, CA). The signals were filtered at 10 KHz and acquired using Digitate 1440A and pClamp 10.7 (Molecular Devices). The recording pipettes (4 MΩ-6 MΩ) were filled with internal solutions. For GABAA receptor-mediated evoked inhibitory postsynaptic currents ([…]) recording, the pipettes filled with Cesium Chloride-based internal solution (in mM) 135 CsCl, 2 MgCl2, 0.5 EGTA, 10 HEPES, 4 Mg-ATP, 0.5 Na-GTP, 10 Na2-phosphocreatine, and QX314 (lidocaine N-ethyl bromide), pH adjusted to 7.3 with CsOH (290 mosm). For AMPA-receptor mediated evoked excitatory postsynaptic currents (eEPSCs) recording, the pipette solution contained (in mM) 130 CsMeS, 1 MgCl2, 0.5 EGTA, 10 HEPES, 4 Mg-ATP, 0.5 Na-GTP, 10 Na2-phosphocreatine, and 4 QX314, pH adjusted to 7.3 with CsOH (290 mosm). For experiment of brain slices and retinas, the eIPSCs or eEPSCs were elicited by electrical stimuli at 0.067 Hz in 0.3-ms duration and 150-300-ρA (60-70% maximum responses) stimulation intensity at a holding potential of −70 mV. The stimulating electrode was placed within 60-100 μm from the recording neuron under voltage-clamp mode. GABA-receptor mediated eIPSCs were isolated in the presence of DNQX ([…] AMPAR antagonist) and AP-V ([…] antagonist) in the bath solution. For AMPA-receptor mediated eEPSCs, added picrotoxin ([…], GABAAR antagonist) and AP-V ([…]) to the bath solution.

C#CCOCCOCCOCCOCCOCCOCCC(CNS(=O)(=O)C(C)C)c1ccc(CCNS(=O)(=O)C(C)C)cc1 (stereo not drawn) [CMPDA.1alkyne, N-(2-{4-[23-(propane-2-sulfonamido)-4,7, 10, 13, 16, 19-hexaoxatricos-1-yn-22-yl]phenyl}ethyl)propane-2-sulfonamide]
positive modulation of the AMPAR (AMPAR [1]): retained its ability to positively modulate the AMPAR

COc1cc(CCCCl)ccc1CCOCCNC(=O)c1ccc(CNC(=O)CCOCCOCCOCCOCCOCCOCCOCCOCCOCCOCCOCCOCCOCCOCCOCCOCCOCCOCCOCCOCCOCCOCCOCCOCCOCCOCCOCCOCCOCCOCCOCCOCCOCCOCCOCCOCCn2cc(COCCNCCCNC(=O)CC(CNS(=O)(=O)C(C)C)c3ccc(CCNS(=O)(=O)C(C)C)cc3)nn2)cc1 (stereo not drawn) [CMPDA.2DART.2]
AMPAR evoked EPSC integral (total charge transfer) boost, +HTP cells (AMPAR [2]): 3 fold | AMPAR evoked EPSC, ddHTP cells (AMPAR [2]): No impact | integrated EPSC charge transfer, +HTP RGCs (AMPAR [2]): three-fold increase | AMPAR evoked EPSC, ddHTP cells (AMPAR [2]; listed as CMPDA.2^DART.2): not ^ddHTP cells | positive modulation of the AMPAR (AMPAR [1]): restored the ability of the reagent to bind and produce positive allosterically modulation of the AMPAR
